This note sets out measurements from patent US20250296938A1, “Compounds that Interact with the Ras Superfamily for the Treatment of Cancers, Inflammatory Diseases, Rasopathies, and Fibrotic Disease” (SHY Therapeutics, LLC, priority 2018, published 2025).

Molecules are shown by their SMILES. Like-named read-outs stand apart in the source and are kept apart here.

The target in one experiment is T1, KRas G12D mutant (Homo sapiens, UniProt P01116, G12D).
T1 construct: fused on or other part: His tag, used for capture on nickel-coated plates
The experiment in a line: Ras GTP binding domain inhibition assay (Cy3-GTP/Cy5-GTP competition). As to conditions: at 20 μM. In a few lines:
(§1)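 Compounds tested at 20 μM or in serial dilution for IC50 against nickel-captured His-tagged GTPase, 3 hours at room temperature, with or without His-Sos GEF added for last hour. Fluorescent GTP then added at 100 nM for 45 minutes; wells washed, bound label measured by fluorescence.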

For another experiment, the target named is Rac-1 (Homo sapiens, UniProt P63000). The description is as above. The method, boiled down: as §1
Another experiment concerns the target Rho-A (Homo sapiens, UniProt P61586). The description is as above. As to conditions: at 20 μM. In a few lines:
as §1

A further experiment deals with HRas wild type. The experiment is described as above. Further details: species or system human. As to conditions: at 20 μM. In a few lines:
as §1

The next experiment has as its system TNF-α. The experiment in a line: Mouse TNF alpha quantification assay, LPS-stimulated RAW 264.7 macrophages. Type of experiment: cell-based. As to conditions: for inhibition at 30 µM: RAW264.7, 30 μM, LPS-stimulated RAW 264.7 macrophages; for inhibition at 10 µM: RAW264.7, 10 μM, LPS (100 ng/ml) added concurrently, 5 hours, RAW 264.7, read-out: TNFα % Inhibition. In a few lines: (§2)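 RAW 264.7 cells, serum-starved overnight (0.5% FBS), were pretreated with compounds at 30 μM (0.3% DMSO) for 3 h, then stimulated with LPS 100 ng/ml for 16 h at 37 °C; alternatively, 10 μM compound was added together with LPS for 5 h. Secreted TNF-α and IL-6 were quantified in supernatants by sandwich ELISA.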

For the next experiment, the system named is IL-6. The experiment in a line: Mouse IL6 quantification assay, LPS-stimulated RAW 264.7 macrophages. Type of experiment: cell-based. As to conditions: for inhibition at 30 µM: RAW264.7, 30 μM, LPS-stimulated RAW 264.7 macrophages; for inhibition at 10 µM: RAW264.7, 10 μM, LPS (100 ng/ml) added concurrently, 5 hours, RAW 264.7. The method, boiled down:
as §2

In the case of `COc1cccc(-c2sc3nc(-c4nccn4C)nc(NC4CCC(OC)C4)c3c2-c2ccccc2)c1F` (centres unmarked) [drawing 1018], the inhibition at 20 µM was in the range of 51 to 75% on KRas G12D mutant (with SOS, read-out: KRas G12D mutant + SOS: % inh.); 26 to 50% on KRas G12D mutant (without SOS, read-out: KRas G12D mutant: % inh.); 51 to 75% on Rac-1 (without SOS, read-out: Rac-1: % inh.). Further, at Rac-1 (at 20 μM, with SOS), the “Rac-1 + SOS: % inh.” value is given as “C (51-75% inhibition)”. In addition, the “Rho-A + SOS: % inh.” value at Rho-A (with SOS) is “C (51-75% inhibition)”. For the same molecule, the “Rho-A: % inh.” value at Rho-A (without SOS) is “C (51-75% inhibition)”. Further, the “HRAS wild type + SOS: % inh.” value in the experiment with HRas wild type (with SOS) is “D (76-100% inhibition)”. Besides, the “HRas wild type % inh.” value with HRas wild type (without SOS) is recorded as “D (76-100% inhibition)”.

Regarding `COCCCNc1nc(-c2nccn2C)nc2sc(-c3ccn(C)n3)c(-c3ccc(OC)cc3)c12` [drawing 688], the inhibition at 30 µM with TNF-α is 0%; in the experiment on IL-6, 76 to 100%.

Turning to `CO[C@H]1C[C@H](Nc2nc(-c3nccn3C)nc3sc(-c4ccn(C)n4)c(-c4ccccc4)c23)C1` [drawing 771], the inhibition at 10 µM in the experiment on TNF-α and with IL-6 was 76 to 100% throughout.

In the case of `COc1nc(-c2ccccn2)nc2c(-c3ccccn3)csc12` [drawing 778], the inhibition at 10 µM in the experiment on TNF-α lay within 1 to 25%; in the experiment with IL-6 it was 51 to 75%.

On to `COc1ccc(Cn2cnc(-c3nc(O)c4scc(-c5ccccn5)c4n3)c2)cc1` [drawing 676], for which the inhibition at 30 µM in the experiment with TNF-α lay in the range of 1 to 25%; in the experiment on IL-6, 76 to 100%.

On to `COc1cccc(Cn2ccnc2-c2nc(O)c3scc(-c4ccc(OCC(C)C)nc4)c3n2)c1` [drawing 765], for which the inhibition at 10 µM in the experiment on TNF-α was 1 to 25%; in the experiment on IL-6 it was 76 to 100%.

On to `CO[C@H]1C[C@@H](Nc2nc(-c3nccn3C)nc3sc(C(=O)NC(C)C)c(-c4ccccc4)c23)C1` [drawing 785], for which the inhibition at 10 µM was 0% in the experiment with TNF-α and 1 to 25% in the experiment on IL-6.

Take `CO[C@H]1CC[C@@H](Nc2nc(-c3nccn3C)nc3sc(-c4ccn(C(C)C)n4)c(C)c23)C1` [drawing 784]: the results for the inhibition at 10 µM in the experiment on TNF-α and in the experiment on IL-6 were 26 to 50% and 51 to 75%, respectively.

Turning to `COC1CCN(c2nc(-c3nccn3C)nc3sc(Br)c(-c4ccccc4)c23)C1` (centres unmarked) [drawing 716], the inhibition at 30 µM was 26 to 50% in the experiment with TNF-α and 51 to 75% with IL-6.

Take `COCCN(C)C(=O)c1nc(-c2ccccn2)nc(O)c1O` [drawing 735]: the inhibition at 30 µM in the experiment with TNF-α was 1 to 25%; with IL-6, 0%.

As to `Cn1ccnc1-c1nc(O)c(O)c(C(=O)NC2CCCC2)n1` [drawing 740], the inhibition at 30 µM in the experiment with TNF-α was 1 to 25%; with IL-6, 0%.

With `CO[C@H]1CC[C@@H](Nc2nc(-c3nccn3C)nc3sc(C(=O)N4CCCC4)c(-c4ccccc4)c23)C1` [drawing 791], the inhibition at 10 µM with TNF-α and in the experiment on IL-6 was 1 to 25% throughout.

For the molecule `COc1c(O)nc(-c2ccccn2)nc1Nc1ccccc1` [drawing 745], the inhibition at 10 µM is 1 to 25% in the experiment on TNF-α and 76 to 100% in the experiment with IL-6.

`COCCNc1nc(-c2nccn2C)nc2sc(-c3cccc(OC)c3Cl)c(-c3ccccc3)c12` [drawing 700]: the inhibition at 30 µM with TNF-α and in the experiment on IL-6 was 76 to 100% in each case.

Turning to `COc1cccc(-c2sc3nc(-c4nccn4C)nc(N[C@@H]4CC[C@H](OC)C4)c3c2-c2ccccc2)c1F` [drawing 749], the inhibition at 10 µM in the experiment with TNF-α is 1 to 25%; in the experiment with IL-6 it was 26 to 50%.

For `Cn1ccc(-c2sc3nc(-c4nccn4C)nc(N[C@@H]4CC[C@H](O)C4)c3c2-c2ccccc2)n1` (racemic) [drawing 774], the figures for the inhibition at 10 µM in the experiment on TNF-α and in the experiment with IL-6 were 1 to 25% and 26 to 50%, respectively.

Consider `Oc1nc(-c2cn3ccccc3n2)nc2c(-c3ccccn3)csc12` [drawing 666], for which the inhibition at 30 µM in the experiment with TNF-α and in the experiment with IL-6 was 76 to 100% throughout.

`Oc1nc(-c2ncc3ccccn23)nc2c(-c3ccccn3)csc12` [drawing 673]: the inhibition at 30 µM in the experiment with TNF-α and in the experiment on IL-6 was 76 to 100% throughout.

As for `COC1CCN(c2nc(-c3nccn3C)nc3sc(-c4ccc(CO)cc4)c(-c4ccccc4)c23)C1` (centres unmarked) [drawing 711], the inhibition at 30 µM in the experiment with TNF-α and with IL-6 was 76 to 100% in each case.

On to `Oc1nc(-c2nccn2Cc2ccccn2)nc2c(-c3ccccn3)csc12` [drawing 669], for which the values for the inhibition at 30 µM in the experiment with TNF-α and in the experiment with IL-6 were 51 to 75% and 76 to 100%, respectively.

On to `COCCNc1nc(-c2nccn2C)nc2sc(-c3cc(OC)ccc3Cl)c(-c3ccccc3)c12` [drawing 701], for which the figures for the inhibition at 30 µM in the experiment with TNF-α and in the experiment with IL-6 were 1 to 25% and 51 to 75%, respectively.

`COC1CCN(c2nc(-c3nccn3C)nc3sc(-c4ccn(C)n4)c(-c4ccccc4)c23)CC1` [drawing 687]: the inhibition at 30 µM in the experiment on TNF-α and in the experiment with IL-6 was 26 to 50% in each case.

As for `Cn1ccnc1-c1nc(O)c(O)c(C(=O)N2CCCC2)n1` [drawing 739], the results for the inhibition at 30 µM in the experiment on TNF-α and in the experiment on IL-6 were 1 to 25% and 0%, respectively.

As for `CO[C@H]1C[C@@H](Nc2nc(-c3nccn3C)nc3sc(-c4ccn(C)n4)c(-c4ccccc4)c23)C1` [drawing 770], the inhibition at 10 µM with TNF-α and with IL-6 was 76 to 100% throughout.

`COC1CCC(Nc2nc(-c3nccn3C)nc3sc(-c4cccc(O)c4F)c(-c4ccccc4)c23)C1` (centres unmarked) [drawing 750]: the inhibition at 10 µM in the experiment on TNF-α and in the experiment on IL-6 was 0% throughout.

As to `CN(C)CCOCCNc1nc(-c2nccn2C)nc2sc(-c3ccn(C)n3)c(-c3ccccc3)c12` [drawing 772], the values for the inhibition at 10 µM in the experiment on TNF-α and in the experiment on IL-6 were 26 to 50% and 76 to 100%, respectively.

Regarding `O=C(NC1CCCC1)c1nc(-c2ccccn2)nc(O)c1O` [drawing 732], the inhibition at 30 µM in the experiment with TNF-α fell in the range of 26 to 50%; in the experiment with IL-6 it was 76 to 100%.

Consider `Cn1ccc(-c2sc3nc(-c4nccn4C)nc(O)c3c2-c2ccccc2)n1` [drawing 769], for which the inhibition at 10 µM in the experiment with TNF-α lay in the range of 1 to 25%; with IL-6, 51 to 75%.

Turning to `CO[C@H]1CC[C@@H](Nc2nc(-c3nccn3C)nc3sc(C(=O)NC(C)C)c(-c4ccccc4)c23)C1` [drawing 789], the inhibition at 10 µM in the experiment with TNF-α fell in the range of 1 to 25%; with IL-6, 51 to 75%.

Consider `COCCn1cc(-c2sc3nc(-c4nccn4C)nc(N4CCC(OC)C4)c3c2-c2ccccc2)cn1` (centres unmarked) [drawing 708], for which the inhibition at 30 µM with TNF-α and with IL-6 was 76 to 100% each time.

On to `CO[C@H]1CCC(Nc2nc(-c3nccn3C)nc3sc(-c4ccn(C)n4)c(-c4ccccc4)c23)C1` (some centres unmarked) [drawing 683], for which the inhibition at 30 µM in the experiment with TNF-α and with IL-6 was 76 to 100% throughout.

With `CO[C@H]1CC[C@@H](Nc2nc(-c3nc(C)cn3C)nc3sc(-c4cccc5[nH]ncc45)c(C)c23)C1` [drawing 762], the inhibition at 10 µM was in the range of 26 to 50% with TNF-α and 76 to 100% in the experiment on IL-6.

With `Cn1ccc(-c2sc3nc(-c4nccn4C)nc(NCC4CCOC4)c3c2-c2ccccc2)n1` (centres unmarked) [drawing 682], the inhibition at 30 µM in the experiment on TNF-α and in the experiment on IL-6 was 76 to 100% each time.

On to `COCCNc1nc(-c2nccn2C)nc2sc(-c3ccccc3Cl)c(-c3ccc(OC)cc3)c12` [drawing 695], for which the inhibition at 30 µM is 0% in the experiment with TNF-α and 26 to 50% with IL-6.

On to `COCCNC(=O)c1sc2nc(-c3nccn3C)nc(N[C@H]3C[C@@H](OC)C3)c2c1-c1ccccc1` [drawing 786], for which the inhibition at 10 µM with TNF-α is 0%; in the experiment on IL-6, 26 to 50%.

With `COC1CCN(c2nc(-c3nccn3C)nc3sc(-c4ccnn4C)c(-c4ccccc4)c23)C1` (centres unmarked) [drawing 703], the inhibition at 30 µM was 0% in the experiment with TNF-α and 26 to 50% in the experiment on IL-6.

As for `CN(Cc1ccccc1)C(=O)c1nc(-c2ccccn2)nc(O)c1O` [drawing 729], the inhibition at 30 µM is 0% in the experiment with TNF-α and 1 to 25% with IL-6.

Consider `CO[C@H]1CC[C@@H](Nc2nc(-c3nccn3C)nc3sc(-c4cccc5[nH]ncc45)c(-c4ccccc4)c23)C1` [drawing 754], for which the inhibition at 10 µM in the experiment on TNF-α and with IL-6 was 76 to 100% each time.

Consider `COc1ccc(-c2c(-c3cccc(OC)c3F)sc3nc(-c4nccn4C)nc(N4CCC(OC)C4)c23)cc1` (centres unmarked) [drawing 717], for which the inhibition at 30 µM in the experiment on TNF-α and in the experiment on IL-6 was 76 to 100% throughout.

Regarding `COc1ccc(-c2c(-c3ccn(C)n3)sc3nc(-c4nccn4C)nc(N4CCC(OC)C4)c23)cc1` (centres unmarked) [drawing 690], the results for the inhibition at 30 µM with TNF-α and with IL-6 were 0% and 1 to 25%, respectively.

For the molecule `COCC1CCN(c2nc(-c3nccn3C)nc3sc(-c4ccn(C)n4)c(-c4ccccc4)c23)C1` (centres unmarked) [drawing 685], the inhibition at 30 µM in the experiment on TNF-α and in the experiment on IL-6 was 76 to 100% in each case.

On to `COC1CCN(c2nc(-c3nccn3C)nc3sc(-c4cnn(C)c4)c(-c4ccccc4)c23)C1` (centres unmarked) [drawing 710], for which the inhibition at 30 µM with TNF-α was 51 to 75%; with IL-6, 26 to 50%.

`Cn1ccnc1-c1nc(O)c(O)c(C(=O)N2CCCCC2)n1` [drawing 741]: the inhibition at 30 µM with TNF-α is 1 to 25%; in the experiment on IL-6 it was 0%.
